Measured values from ChEMBL document CHEMBL1140941 (J Med Chem, 2009).
The source made the active and inactive calls. No cut-off for these calls is given here.

Assays:
[1] = molecular target: Oxysterols receptor LXR-alpha (Homo sapiens) (UniProt Q13133); assay: Agonist activity at LXRalpha expressed in african green monkey CV1 cells co-expressing LXRE by luciferase reporter gene assay; assay type: functional, cell-based; conditions: CV-1
[2] = molecular target: Retinoic acid receptor RXR-alpha (Homo sapiens) (UniProt P19793); assay: Agonist activity at RXRalpha-LBD expressed in african green monkey CV1 cells co-expressing MH100 by luciferase reporter gene assay; assay type: functional, cell-based; conditions: CV-1
[3] = molecular target: Retinoic acid receptor gamma (Homo sapiens) (UniProt P13631); assay: Agonist activity at gal-RARgamma expressed in african green monkey CV1 cells co-expressing MH100 by luciferase reporter gene assay; assay type: functional, cell-based; conditions: CV-1
[4] = molecular target: T1, Bile acid receptor (Homo sapiens) (UniProt Q96RI1); assay: Agonist activity at human FXR expressed in african green monkey CV1 cells co-expressing ECRE with RXR co-factor up to 10 uM by luciferase reporter gene assay relative to CDCA; assay type: functional, cell-based; conditions: CV-1
T1 sequence (whole entry): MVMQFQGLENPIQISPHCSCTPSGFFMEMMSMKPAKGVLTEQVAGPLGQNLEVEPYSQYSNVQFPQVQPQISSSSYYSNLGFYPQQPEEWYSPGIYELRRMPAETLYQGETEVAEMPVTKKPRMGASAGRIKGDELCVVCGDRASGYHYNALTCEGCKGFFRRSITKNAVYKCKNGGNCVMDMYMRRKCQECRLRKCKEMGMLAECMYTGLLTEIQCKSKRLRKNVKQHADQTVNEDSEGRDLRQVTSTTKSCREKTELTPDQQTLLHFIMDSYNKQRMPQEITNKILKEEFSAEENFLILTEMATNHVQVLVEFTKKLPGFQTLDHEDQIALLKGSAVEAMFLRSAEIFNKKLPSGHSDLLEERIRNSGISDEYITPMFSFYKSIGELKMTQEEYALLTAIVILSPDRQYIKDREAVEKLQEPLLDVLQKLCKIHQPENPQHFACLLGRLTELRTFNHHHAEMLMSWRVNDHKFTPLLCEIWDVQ

[5] = molecular target: Retinoic acid receptor gamma (Homo sapiens) (UniProt P13631); assay: Agonist activity at gal-RARgamma expressed in african green monkey CV1 cells co-expressing MH100 up to 10 uM by luciferase reporter gene assay relative to control; assay type: functional, cell-based; conditions: CV-1
[6] = molecular target: T2, Estrogen receptor (Homo sapiens) (UniProt P03372); assay: Agonist activity at gal-ERalpha expressed in african green monkey CV1 cells co-expressing MH100 up to 10 uM by luciferase reporter gene assay relative to control; assay type: functional, cell-based; conditions: CV-1
T2 sequence (whole entry): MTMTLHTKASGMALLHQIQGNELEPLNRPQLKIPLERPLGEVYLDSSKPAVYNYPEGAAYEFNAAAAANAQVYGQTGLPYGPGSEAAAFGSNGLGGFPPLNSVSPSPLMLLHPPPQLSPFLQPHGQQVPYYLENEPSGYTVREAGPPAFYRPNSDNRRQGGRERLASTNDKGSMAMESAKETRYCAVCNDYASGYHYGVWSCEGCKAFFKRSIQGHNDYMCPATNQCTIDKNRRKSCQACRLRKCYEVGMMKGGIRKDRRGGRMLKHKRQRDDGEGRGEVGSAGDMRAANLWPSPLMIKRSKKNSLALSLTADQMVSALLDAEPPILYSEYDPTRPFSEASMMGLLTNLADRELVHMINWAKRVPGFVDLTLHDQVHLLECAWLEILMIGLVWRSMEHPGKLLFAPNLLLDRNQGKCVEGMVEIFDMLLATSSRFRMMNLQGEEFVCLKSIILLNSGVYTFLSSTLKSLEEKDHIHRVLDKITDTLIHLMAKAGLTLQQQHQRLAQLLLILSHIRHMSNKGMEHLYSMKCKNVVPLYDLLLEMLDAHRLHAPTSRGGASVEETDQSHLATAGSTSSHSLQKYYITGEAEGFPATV

[7] = molecular target: T3, Glucocorticoid receptor (Homo sapiens) (UniProt P04150); assay: Agonist activity at gal-GR expressed in african green monkey CV1 cells co-expressing MH100 up to 10 uM by luciferase reporter gene assay relative to control; assay type: functional, cell-based; conditions: CV-1
T3 sequence (whole entry): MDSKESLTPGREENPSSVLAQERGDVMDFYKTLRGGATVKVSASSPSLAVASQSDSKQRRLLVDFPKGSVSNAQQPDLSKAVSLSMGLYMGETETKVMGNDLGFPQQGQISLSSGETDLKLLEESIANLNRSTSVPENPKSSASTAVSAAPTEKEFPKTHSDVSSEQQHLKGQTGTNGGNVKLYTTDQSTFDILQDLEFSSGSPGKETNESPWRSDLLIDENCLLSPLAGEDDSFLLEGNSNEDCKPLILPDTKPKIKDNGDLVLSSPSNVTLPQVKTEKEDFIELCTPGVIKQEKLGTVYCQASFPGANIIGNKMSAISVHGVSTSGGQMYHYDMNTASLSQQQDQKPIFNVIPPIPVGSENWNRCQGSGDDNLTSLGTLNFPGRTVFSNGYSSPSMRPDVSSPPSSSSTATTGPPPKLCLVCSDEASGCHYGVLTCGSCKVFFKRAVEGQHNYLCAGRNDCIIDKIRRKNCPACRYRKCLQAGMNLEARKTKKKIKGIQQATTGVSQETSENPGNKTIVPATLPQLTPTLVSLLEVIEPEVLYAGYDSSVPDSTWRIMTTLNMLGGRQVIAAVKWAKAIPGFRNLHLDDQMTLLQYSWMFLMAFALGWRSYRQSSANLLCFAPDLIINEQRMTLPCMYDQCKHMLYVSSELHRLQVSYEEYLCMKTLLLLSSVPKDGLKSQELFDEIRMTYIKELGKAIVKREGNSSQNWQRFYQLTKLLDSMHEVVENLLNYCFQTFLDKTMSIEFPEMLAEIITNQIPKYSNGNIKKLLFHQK

[8] = molecular target: Steroid hormone receptor ERR2 (Homo sapiens) (UniProt O95718); assay: Antagonist activity at ERRbeta expressed in african green monkey CV1 cells by luciferase reporter gene assay; assay type: functional, cell-based; conditions: CV-1
[9] = molecular target: Estrogen receptor beta (Homo sapiens) (UniProt Q92731); assay: Antagonist activity at gal-ERbeta expressed in african green monkey CV1 cells co-expressing MH100 by luciferase reporter gene assay; assay type: functional, cell-based; conditions: CV-1
[10] = molecular target: Progesterone receptor (Homo sapiens, UniProt P06401); assay: Antagonist activity at gal-PR expressed in african green monkey CV1 cells co-expressing MH100 by luciferase reporter gene assay; assay type: functional, cell-based, CV-1
[11] = tested on: Mus musculus; assay: Reduction of plasma total cholesterol level in western diet-induced hyperlipidemia LDLR knockout mouse model at 1 mg/kg, po administered for 6 weeks; assay type: functional; design: scale not given: the % may be the effect or the level left
[12] = tested on: Mus musculus; assay: Reduction of plasma total cholesterol level in western diet-induced hyperlipidemia LDLR knockout mouse model at 3 mg/kg, po administered for 6 weeks; assay type: functional; design: scale not given: the % may be the effect or the level left
[13] = tested on: Mus musculus; assay: Inhibition of preatherosclerotic lesion in LDLR knockout mouse model at 3 mg/kg, po administered for 6 weeks by en-face analysis; assay type: functional; design: scale not given: the % may be the effect or the level left
[14] = Oral bioavailability in CD rat at 3 mg/kg; assay type: ADME, organism-based; conditions: in vivo

Sequence of Retinoic acid receptor gamma (Homo sapiens) (P13631 whole entry): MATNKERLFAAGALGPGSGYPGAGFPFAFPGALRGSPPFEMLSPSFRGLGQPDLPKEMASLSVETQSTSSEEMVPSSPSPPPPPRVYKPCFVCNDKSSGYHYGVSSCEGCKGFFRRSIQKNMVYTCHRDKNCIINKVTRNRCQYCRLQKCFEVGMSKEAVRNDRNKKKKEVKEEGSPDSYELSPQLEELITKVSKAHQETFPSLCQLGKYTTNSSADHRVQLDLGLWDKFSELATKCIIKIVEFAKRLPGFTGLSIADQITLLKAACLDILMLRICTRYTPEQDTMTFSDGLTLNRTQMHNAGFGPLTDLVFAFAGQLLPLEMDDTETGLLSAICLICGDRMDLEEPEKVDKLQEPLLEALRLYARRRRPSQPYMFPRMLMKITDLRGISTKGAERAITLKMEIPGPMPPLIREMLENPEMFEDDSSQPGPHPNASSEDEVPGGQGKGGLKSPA
Sequence of Oxysterols receptor LXR-alpha (Homo sapiens) (Q13133 whole entry, the tested form may be a part): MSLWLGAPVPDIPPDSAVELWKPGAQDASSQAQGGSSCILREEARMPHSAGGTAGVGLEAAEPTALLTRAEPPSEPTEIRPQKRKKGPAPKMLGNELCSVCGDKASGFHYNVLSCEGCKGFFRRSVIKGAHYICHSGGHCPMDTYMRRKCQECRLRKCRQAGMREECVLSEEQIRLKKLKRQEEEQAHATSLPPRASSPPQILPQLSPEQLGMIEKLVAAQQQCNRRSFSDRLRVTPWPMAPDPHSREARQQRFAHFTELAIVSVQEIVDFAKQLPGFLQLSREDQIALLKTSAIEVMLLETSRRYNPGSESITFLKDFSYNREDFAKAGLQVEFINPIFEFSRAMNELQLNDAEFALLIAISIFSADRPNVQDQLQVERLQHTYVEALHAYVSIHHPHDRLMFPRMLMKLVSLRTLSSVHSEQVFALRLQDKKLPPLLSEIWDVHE
Sequence of Steroid hormone receptor ERR2 (Homo sapiens) (O95718 whole entry): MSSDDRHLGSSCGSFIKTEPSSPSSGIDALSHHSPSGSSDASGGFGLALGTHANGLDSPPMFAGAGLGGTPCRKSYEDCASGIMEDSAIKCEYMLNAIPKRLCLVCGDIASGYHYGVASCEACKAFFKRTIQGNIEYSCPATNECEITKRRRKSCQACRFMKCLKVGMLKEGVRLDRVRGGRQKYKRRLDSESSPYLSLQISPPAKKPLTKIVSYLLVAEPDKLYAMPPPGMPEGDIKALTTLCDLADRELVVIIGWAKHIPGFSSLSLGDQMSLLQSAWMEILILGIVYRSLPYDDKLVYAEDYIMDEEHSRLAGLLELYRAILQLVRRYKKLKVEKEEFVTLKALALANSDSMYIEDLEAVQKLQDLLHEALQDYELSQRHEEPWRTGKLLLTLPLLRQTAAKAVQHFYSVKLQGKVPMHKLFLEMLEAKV
Sequence of Progesterone receptor (P06401 whole entry): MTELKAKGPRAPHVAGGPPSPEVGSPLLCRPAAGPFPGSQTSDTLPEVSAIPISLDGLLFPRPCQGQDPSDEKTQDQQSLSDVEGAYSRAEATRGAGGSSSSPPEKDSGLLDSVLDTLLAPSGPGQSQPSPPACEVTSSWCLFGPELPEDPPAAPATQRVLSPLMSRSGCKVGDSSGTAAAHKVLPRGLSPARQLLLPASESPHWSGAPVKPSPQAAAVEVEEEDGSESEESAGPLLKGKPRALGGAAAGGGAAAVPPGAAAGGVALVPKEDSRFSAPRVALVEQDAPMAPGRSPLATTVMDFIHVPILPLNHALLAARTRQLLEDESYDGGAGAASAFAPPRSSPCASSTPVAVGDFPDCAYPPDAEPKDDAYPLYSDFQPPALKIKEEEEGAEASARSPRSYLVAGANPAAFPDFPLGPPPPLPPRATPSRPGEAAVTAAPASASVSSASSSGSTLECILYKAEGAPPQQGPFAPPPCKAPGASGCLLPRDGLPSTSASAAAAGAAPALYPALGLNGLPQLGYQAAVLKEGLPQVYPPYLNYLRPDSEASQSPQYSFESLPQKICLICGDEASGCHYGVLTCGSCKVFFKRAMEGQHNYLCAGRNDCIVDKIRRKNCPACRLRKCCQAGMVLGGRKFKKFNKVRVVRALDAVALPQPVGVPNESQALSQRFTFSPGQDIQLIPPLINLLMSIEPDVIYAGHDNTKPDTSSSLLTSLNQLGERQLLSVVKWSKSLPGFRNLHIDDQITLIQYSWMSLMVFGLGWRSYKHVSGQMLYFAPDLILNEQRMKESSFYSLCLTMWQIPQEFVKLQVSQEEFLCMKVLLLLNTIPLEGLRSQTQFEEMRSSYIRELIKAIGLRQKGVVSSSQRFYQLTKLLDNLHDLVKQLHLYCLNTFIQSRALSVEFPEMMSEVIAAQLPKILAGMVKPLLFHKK
Sequence of Retinoic acid receptor RXR-alpha (Homo sapiens) (P19793 whole entry, the tested form may be a part): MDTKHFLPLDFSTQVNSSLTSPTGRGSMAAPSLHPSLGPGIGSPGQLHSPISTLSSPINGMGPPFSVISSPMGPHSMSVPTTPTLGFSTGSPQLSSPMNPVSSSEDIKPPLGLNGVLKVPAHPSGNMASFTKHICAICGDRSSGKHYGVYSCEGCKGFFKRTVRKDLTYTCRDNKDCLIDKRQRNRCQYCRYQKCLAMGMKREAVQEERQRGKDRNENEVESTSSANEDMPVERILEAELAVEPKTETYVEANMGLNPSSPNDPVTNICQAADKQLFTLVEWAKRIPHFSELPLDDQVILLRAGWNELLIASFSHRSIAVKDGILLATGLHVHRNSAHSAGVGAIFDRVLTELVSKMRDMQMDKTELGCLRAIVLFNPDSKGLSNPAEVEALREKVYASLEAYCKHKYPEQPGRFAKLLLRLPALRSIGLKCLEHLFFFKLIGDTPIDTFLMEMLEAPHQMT
Sequence of Estrogen receptor beta (Homo sapiens) (Q92731 whole entry): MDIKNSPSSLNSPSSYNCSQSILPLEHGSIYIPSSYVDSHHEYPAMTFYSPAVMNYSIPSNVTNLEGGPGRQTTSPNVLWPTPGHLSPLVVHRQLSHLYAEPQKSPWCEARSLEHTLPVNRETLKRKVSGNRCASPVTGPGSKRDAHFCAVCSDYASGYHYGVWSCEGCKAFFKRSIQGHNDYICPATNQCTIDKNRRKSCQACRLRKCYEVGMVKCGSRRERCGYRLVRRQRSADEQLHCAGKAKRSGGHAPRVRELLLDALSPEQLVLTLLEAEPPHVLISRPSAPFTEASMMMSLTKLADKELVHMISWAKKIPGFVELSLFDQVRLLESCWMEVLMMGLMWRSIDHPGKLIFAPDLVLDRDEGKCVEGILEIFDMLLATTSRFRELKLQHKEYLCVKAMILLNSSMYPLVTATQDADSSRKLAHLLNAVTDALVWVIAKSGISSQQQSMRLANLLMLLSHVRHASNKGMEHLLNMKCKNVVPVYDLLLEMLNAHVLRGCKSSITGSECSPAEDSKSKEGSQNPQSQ

## CC(C)OC(=O)C1=CN(C(=O)c2ccc(F)c(F)c2)CC(C)(C)c2c1[nH]c1ccccc21 [TUROFEXORATE ISOPROPYL]
[1]
  Activity: inactive
[2]
  Activity: inactive
[3]
  Activity: inactive
[4]
  Efficacy: 149%
[5]
  Activity: inactive
[6]
  Activity: inactive
[7]
  Activity: inactive
[8]
  Activity: inactive
[9]
  Activity: inactive
[10]
  IC50: 10 µM
[11]
  Activity: 23%
[12]
  Activity: 50%
[13]
  Activity: 36%
[14]
  bioavailability: 37.6%
